molecular target: T1, CYP11A1 (Homo sapiens, UniProt P05108); test: CYP11A1 inhibition, isocaproic acid release assay (IARA) in H295R cells; type: cell-based; conditions: human H295R adrenocortical carcinoma cell line, three days, 3 nM [24,25-3H]-labelled cholesterol; read-out: IC50 on CYP11A1 inhibition (Group)
T1 construct: human H295R adrenocortical carcinoma cell line was used as source of enzyme; endogenous in cells; host or cells: H295R human adrenocortical carcinoma cells
T1 sequence (P05108 40-521): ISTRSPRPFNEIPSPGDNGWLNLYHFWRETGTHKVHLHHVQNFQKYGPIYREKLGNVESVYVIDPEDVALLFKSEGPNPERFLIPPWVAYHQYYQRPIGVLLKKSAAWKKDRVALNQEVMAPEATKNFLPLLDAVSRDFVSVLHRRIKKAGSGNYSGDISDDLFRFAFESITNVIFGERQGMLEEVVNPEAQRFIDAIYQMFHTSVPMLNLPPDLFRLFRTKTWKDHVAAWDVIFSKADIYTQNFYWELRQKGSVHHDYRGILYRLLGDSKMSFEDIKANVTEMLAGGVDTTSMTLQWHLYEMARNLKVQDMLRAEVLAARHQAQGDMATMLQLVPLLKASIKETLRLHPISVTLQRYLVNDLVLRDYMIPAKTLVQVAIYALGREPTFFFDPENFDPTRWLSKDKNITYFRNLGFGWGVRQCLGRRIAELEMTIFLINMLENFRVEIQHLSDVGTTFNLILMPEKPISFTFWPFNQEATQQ
Method: The ability of the test compounds to inhibit conversion of cholesterol to pregnenolone and isocaproic acid was measured by modification of isocaproic acid release assay (IARA) described by Ruangwises et al. (Biology of Reproduction 1991; 45(1):143-50) except that human H295R adrenocortical carcinoma cell line was used as source of enzyme and extraction was done with dextran-coated charcoal suspension (Isomaa, V. et al., Endocrinology 1982; 111(3):833-843). […] To determine the half maximal inhibitory concentration (IC50) of the test compounds on CYP11A1 inhibition, the cells were treated for three days with increasing concentrations of the test compounds in the presence of 3 nM [24,25-3H]-labelled cholesterol (American Radiolabelled Chemicals). The final DMSO concentration was 1%. Cell culture medium was extracted with dextran-coated charcoal suspension and the radiolabelled isocaproic acid was determined by mixing 100 μl of supernatant fraction in 200 μl of scintillation fluid (OptiPhase SuperMix, Perkin Elmer). Radioactivity was measured using a Microbeta scintillation counter (1450 MicroBeta Trilux, Wallac). All the test compounds were studied at 10 concentrations in duplicates.

SMILES | IC50
CC(O)C1CCC(COc2ccc(CN3Cc4ccccc4C3)cc2S(C)(=O)=O)CC1 (stereo not drawn) [Compound 94, 1-(4-((4-(Isoindolin-2-ylmethyl)-2-(methylsulfonyl)phenoxy)methyl)cyclohexyl)ethan-1-ol] | 201 to 2000 nM
CS(=O)(=O)c1cc(CN2Cc3ccccc3C2)ccc1OCC1CCC(C(=O)N2CCC2)CC1 (stereo not drawn) [Compound 80, Azetidin-1-yl(4-((4-(isoindolin-2-ylmethyl)-2-(methylsulfonyl)phenoxy)-methyl)cyclohexyl)methanone] | 101 to 200 nM
CS(=N)(=O)c1ccc(COc2ccc(CN3Cc4ccccc4C3)cc2S(C)(=O)=O)cc1 (stereo not drawn) [Compound 72, Imino(4-((4-(isoindolin-2-ylmethyl)-2-(methylsulfonyl)phenoxy)methyl)phenyl)(methyl)-λ^6-sulfanone] | < 100 nM
CS(=O)(=O)N1CCC(COc2ccc(CN3Cc4ccccc4C3)cc2S(=O)(=O)C2CC2)CC1 [Compound 26, 2-(3-(Cyclopropylsulfonyl)-4-((1-(methylsulfonyl)piperidin-4-yl)methoxy)-benzyl)isoindoline] | 101 to 200 nM
CS(=O)(=O)c1cc(CN2Cc3ccccc3C2)ccc1OCc1ccc([S@](C)(=N)=O)cc1 [Compound 95, (R)-Imino(4-((4-(isoindolin-2-ylmethyl)-2-(methylsulfonyl)phenoxy)methyl)-phenyl)(methyl)-λ^6-sulfanone] | 101 to 200 nM
CN(C)C(=O)[C@H]1CC[C@H](COc2ccc(CN3Cc4ccccc4C3)cc2S(C)(=O)=O)CC1 [Compound 79, (1r,4r)-4-((4-(Isoindolin-2-ylmethyl)-2-(methylsulfonyl)phenoxy)methyl)-N,N-dimethylcyclohexane-1-carboxamide] | < 100 nM
CC(C)(C)OC(=O)N1CCC2(CC1)CC(Oc1coc(CN3CCc4ccccc4C3)cc1=O)C2 [Compound 32, tert-Butyl 2-((6-((3,4-dihydroisoquinolin-2(1H)-yl)methyl)-4-oxo-4H-pyran-3-yl)oxy)-7-azaspiro[3.5]nonane-7-carboxylate] | 101 to 200 nM
CS(=O)(=O)N1CC2(CC(COc3coc(CN4CCc5ccccc5C4)cc3=O)C2)C1 [Compound 62, 2-((3,4-Dihydroisoquinolin-2(1H)-yl)methyl)-5-((2-(methylsulfonyl)-2-azaspiro[3.3]heptan-6-yl)methoxy)-4H-pyran-4-one] | 201 to 2000 nM
CS(=O)(=O)N1CCC(COc2coc(C(N3Cc4ccccc4C3)C(F)(F)F)cc2=O)CC1 (stereo not drawn) [Compound 20, 5-((1-(Methylsulfonyl)piperidin-4-yl)methoxy)-2-(2,2,2-trifluoro-1-(isoindolin-2-yl)ethyl)-4H-pyran-4-one] | 201 to 2000 nM
CO/N=C(\C)c1ccc2c(c1)CN(Cc1cc(=O)c(OCC3CCN(S(C)(=O)=O)CC3)co1)C2 [Compound 91, (E)-2-((5-(1-(Methoxyimino)ethyl)isoindolin-2-yl)methyl)-5-((1-(methylsulfonyl)piperidin-4-yl)methoxy)-4H-pyran-4-one] | 101 to 200 nM
CS(=O)(=O)c1cc(CN2Cc3ccccc3C2)ccc1OCC1CCOCC1 [Compound 83, 2-(3-(Methylsulfonyl)-4-((tetrahydro-2H-pyran-4-yl)methoxy)benzyl)isoindoline] | 201 to 2000 nM
CS(=O)(=O)N1CCC(COc2coc(CN3Cc4ccc(-c5ncco5)cc4C3)cc2=O)CC1 [Compound 3, 5-((1-(Methylsulfonyl)piperidin-4-yl)methoxy)-2-((5-(oxazol-2-yl)isoindolin-2-yl)methyl)-4H-pyran-4-one] | < 100 nM
CS(=O)(=O)c1cc(C(N2Cc3ccccc3C2)C(F)(F)F)ccc1OCC1CCN(S(C)(=O)=O)CC1 (stereo not drawn) [Compound 21, 2-(2,2,2-Trifluoro-1-(3-(methylsulfonyl)-4-((1-(methylsulfonyl)piperidin-4-yl)methoxy)phenyl)ethyl)isoindoline] | 101 to 200 nM
CS(=O)(=O)N1CCC(COc2coc(CN3Cc4ccc(-c5ccon5)cc4C3)cc2=O)CC1 [Compound 5, 2-((5-(Isoxazol-3-yl)isoindolin-2-yl)methyl)-5-((1-(methylsulfonyl)piperidin-4-yl)methoxy)-4H-pyran-4-one] | < 100 nM
O=c1cc(CN2CCc3ccccc3C2)occ1OCC1CC2(C1)CN(c1ncccn1)C2 [Compound 50, 2-((3,4-Dihydroisoquinolin-2(1H)-yl)methyl)-5-((2-(pyrimidin-2-yl)-2-azaspiro-[3.3]heptan-6-yl)methoxy)-4H-pyran-4-one] | 201 to 2000 nM
CS(=O)(=O)N1CCC(COc2coc(CN3Cc4ccccc4C4(CC4)C3)cc2=O)CC1 [Compound 103, 2-((1′H-Spiro[cyclopropane-1,4′-isoquinolin]-2′(3′H)-yl)methyl)-5-((1-(methyl-sulfonyl)piperidin-4-yl)methoxy)-4H-pyran-4-one] | 201 to 2000 nM
CCS(=O)(=O)c1cc(CN2Cc3ccc(C(F)(F)F)cc3C2)ccc1OCC1CCN(S(C)(=O)=O)CC1 [Compound 27, 2-(3-(Ethylsulfonyl)-4-((1-(methylsulfonyl)piperidin-4-yl)methoxy)benzyl)-5-(trifluoromethyl)isoindoline] | < 100 nM
CC[S@@](=N)(=O)c1ccc(COc2ccc(CN3Cc4ccccc4C3)cc2S(C)(=O)=O)cc1 [Compound 98, (R)-Ethyl(imino)(4-((4-(isoindolin-2-ylmethyl)-2-(methylsulfonyl)phenoxy)-methyl)phenyl)-λ^6-sulfanone] | < 100 nM
COCCN(C)C(=O)c1ccc(COc2ccc(CN3Cc4ccccc4C3)cc2S(C)(=O)=O)cc1 [Compound 69, 4-((4-(Isoindolin-2-ylmethyl)-2-(methylsulfonyl)phenoxy)methyl)-N-(2-methoxyethyl)-N-methylbenzamide] | < 100 nM

Next, values leading:

IC50 | SMILES
< 100 nM | CC[S@](=N)(=O)c1ccc(COc2ccc(CN3Cc4ccccc4C3)cc2S(C)(=O)=O)cc1 [Compound 97, (S)-Ethyl(imino)(4-((4-(isoindolin-2-ylmethyl)-2-(methylsulfonyl)phenoxy)-methyl)phenyl)-λ^6-sulfanone]
< 100 nM | CS(=O)(=O)c1ccc(COc2ccc(CN3Cc4ccccc4C3)cc2S(C)(=O)=O)cc1 [Compound 82, 2-(3-(Methylsulfonyl)-4-((4-(methylsulfonyl)benzyl)oxy)benzyl)isoindoline]
< 100 nM | CN(C)C(=O)c1ccc(COc2ccc(CN3Cc4ccccc4C3)cc2S(C)(=O)=O)cc1 [Compound 68, 4-((4-(Isoindolin-2-ylmethyl)-2-(methylsulfonyl)phenoxy)methyl)-N,N-dimethylbenzamide]
< 100 nM | CC(=O)[C@H]1CC[C@H](COc2ccc(CN3Cc4ccccc4C3)cc2S(C)(=O)=O)CC1 [Compound 67, 1-((1r,4r)-4-((4-(Isoindolin-2-ylmethyl)-2-(methylsulfonyl)phenoxy)methyl)-cyclohexyl)ethan-1-one]
< 100 nM | CS(=O)(=O)c1cc(CN2Cc3ccccc3C2)ccc1OCC1CCN(S(C)(=O)=O)CC1 [Compound 65, 2-(3-(Methylsulfonyl)-4-((1-(methylsulfonyl)piperidin-4-yl)methoxy)benzyl)-isoindoline]
< 100 nM | CS(=O)(=O)c1cc(CN2Cc3ccc(-c4ncco4)cc3C2)ccc1OCC1CCN(S(C)(=O)=O)CC1 [Compound 13b, 2-(2-(3-(Methylsulfonyl)-4-((1-(methylsulfonyl)piperidin-4-yl)methoxy)-benzyl)isoindolin-5-yl)oxazole]
< 100 nM | CCCCS(=O)(=O)c1cc(CN2Cc3ccccc3C2)ccc1OCC1CCN(S(C)(=O)=O)CC1 [Compound 28, 2-(3-(Butylsulfonyl)-4-((1-(methylsulfonyl)piperidin-4-yl)methoxy)benzyl)iso-indoline]
101 to 200 nM | CCC(=O)N1CCC(COc2ccc(CN3Cc4ccccc4C3)cc2S(C)(=O)=O)CC1 [Compound 70]
101 to 200 nM | CS(=O)(=O)N1CCC(COc2coc(CN3Cc4ccc(-c5nncs5)cc4C3)cc2=O)CC1 [Compound 6, 2-((5-(1,3,4-Thiadiazol-2-yl)isoindolin-2-yl)methyl)-5-((1-(methylsulfonyl)-piperidin-4-yl)methoxy)-4H-pyran-4-one]
201 to 2000 nM | O=c1cc(CN2CCc3ccccc3C2)occ1OC1CC2(CCN(S(=O)(=O)c3cccnc3)CC2)C1 [Compound 54, 2-((3,4-Dihydroisoquinolin-2(1H)-yl)methyl)-5-((7-(pyridin-3-ylsulfonyl)-7-azaspiro[3.5]nonan-2-yl)oxy)-4H-pyran-4-one]
< 100 nM | CS(=N)(=O)c1ccc(COc2ccc(CN3Cc4ccc(C(F)(F)F)cc4C3)cc2S(C)(=O)=O)cc1 (stereo not drawn) [Compound 85, Imino(methyl)(4-((2-(methylsulfonyl)-4-((5-(trifluoromethyl)isoindolin-2-yl)methyl)phenoxy)methyl)phenyl)-λ^6-sulfanone]

Source: patent publication US20230192677A1, “CYP11A1 INHIBITORS” (ORION CORPORATION, priority 2020, published 2023)
